# Biological target: T1, human Npt2a (Homo sapiens, UniProt Q06495)
# T1 construct: expressed in transfected cells
# T1 sequence (Q06495 1-639): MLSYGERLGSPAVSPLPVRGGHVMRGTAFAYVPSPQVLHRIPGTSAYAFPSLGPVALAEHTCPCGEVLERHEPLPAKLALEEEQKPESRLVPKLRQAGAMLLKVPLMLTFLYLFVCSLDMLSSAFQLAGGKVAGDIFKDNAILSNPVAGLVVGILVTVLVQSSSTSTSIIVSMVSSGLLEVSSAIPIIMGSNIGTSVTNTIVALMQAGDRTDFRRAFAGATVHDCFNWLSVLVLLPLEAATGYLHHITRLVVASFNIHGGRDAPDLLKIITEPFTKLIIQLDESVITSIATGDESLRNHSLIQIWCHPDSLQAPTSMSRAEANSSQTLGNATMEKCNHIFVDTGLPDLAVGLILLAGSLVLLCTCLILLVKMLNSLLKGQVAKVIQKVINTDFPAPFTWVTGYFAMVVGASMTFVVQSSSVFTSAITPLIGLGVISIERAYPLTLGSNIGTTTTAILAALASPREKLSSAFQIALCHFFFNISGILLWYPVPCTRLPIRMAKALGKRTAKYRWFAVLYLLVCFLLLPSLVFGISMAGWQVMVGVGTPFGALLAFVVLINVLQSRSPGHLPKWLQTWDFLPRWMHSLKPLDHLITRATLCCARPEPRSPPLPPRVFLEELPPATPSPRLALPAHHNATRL
# Experiment: Npt2a activity cell based assay, membrane potential dye, CHO T-REx hNpt2a cells
# Conditions: doxycycline-induced, depolarization by sodium phosphate influx, average or median values if tested more than once
# Method in brief: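 Cells were doxycycline-induced CHO T-REx hNpt2a, dye-loaded and pretreated 5 min at RT with 1 nM–50 μM compound in Na-free pH 7.4 buffer. IC50 was fit to the post/pre-trigger fluorescence ratio.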
row,SMILES,IC50 [nM]
1,"Cc1cc(C)n(-c2cc(Nc3nn(C)c(-c4ccc(C(F)(F)F)cc4)c3C)ncn2)n1 [Example 101, 6-(3,5-dimethyl-1H-pyrazol-1-yl)-N-{1,4-dimethyl-5-[4-(trifluoromethyl)phenyl]-1H-pyrazol-3-yl}pyrimidin-4-amine]",11.5
2,"Cc1nn(-c2cc(Nc3n[nH]c(-c4ccc(F)cc4)c3C)ncn2)c(C(F)F)c1Cl [Example 140, 6-[4-chloro-5-(difluoromethyl)-3-methyl-1H-pyrazol-1-yl]-N-[5-(4-fluorophenyl)-4-methyl-1H-pyrazol-3-yl]pyrimidin-4-amine]",23
3,"COc1c(Nc2cc(-n3nc(C)c4ccncc43)ncn2)n[nH]c1-c1ccc(C#N)cc1 [Example 214, 4-(4-methoxy-3-{[6-(3-methyl-1H-pyrazolo[3,4-c]pyridin-1-yl)pyrimidin-4-yl]amino}-1H-pyrazol-5-yl)benzonitrile]",86
4,"CCc1c(-c2ccc(F)cc2)nn(CC(F)F)c1Nc1cc(-n2nc(C)c(Cl)c2C)ncn1 [Example 163, 6-(4-chloro-3,5-dimethyl-1H-pyrazol-1-yl)-N-[1-(2,2-difluoroethyl)-4-ethyl-3-(4-fluorophenyl)-1H-pyrazol-5-yl]pyrimidin-4-amine]",71
5,"COc1ccc(-c2nn(C)c(Nc3cc(-n4nc(C)cc4C(F)F)ncn3)c2C)cn1 [Example 499, 6-[5-(difluoromethyl)-3-methyl-1H-pyrazol-1-yl]-N-[3-(6-methoxypyridin-3-yl)-1,4-dimethyl-1H-pyrazol-5-yl]pyrimidin-4-amine]",3150
6,"CCOC(=O)c1c(C)nn(-c2cc(Nc3c(C)c(-c4ccc(F)cc4F)nn3CC3CC3)ncn2)c1C [Example 364, ethyl 1-(6-{[1-(cyclopropylmethyl)-3-(2,4-difluorophenyl)-4-methyl-1H-pyrazol-5-yl]amino}pyrimidin-4-yl)-3,5-dimethyl-1H-pyrazole-4-carboxylate]",5
7,"CCCN1Cc2cnn(-c3cc(Nc4c(C)c(-c5ccc(F)cc5)nn4CC4CC4)ncn3)c2C1 [Example 522, N-[1-(cyclopropylmethyl)-3-(4-fluorophenyl)-4-methyl-1H-pyrazol-5-yl]-6-(5-propyl-5,6-dihydropyrrolo[3,4-c]pyrazol-1(4H)-yl)pyrimidin-4-amine]",910
8,"Cc1nn(-c2cc(Nc3c(C)c(-c4ccc(C#N)cc4)nn3C)ncn2)c(C)c1C(O)C(F)(F)F (racemic) [Example 387, (±)-4-{5-[(6-{3,5-dimethyl-4-[2,2,2-trifluoro-1-hydroxyethyl]-1H-pyrazol-1-yl}pyrimidin-4-yl)amino]-1,4-dimethyl-1H-pyrazol-3-yl}benzonitrile]",70
9,"COc1ccc(-c2nn(CC3CC3)c(Nc3cc(-n4nc(C)c(C(F)(F)F)c4C)ncn3)c2C)cc1 [Example 486, N-[1-(cyclopropylmethyl)-3-(4-methoxyphenyl)-4-methyl-1H-pyrazol-5-yl]-6-[3,5-dimethyl-4-(trifluoromethyl)-1H-pyrazol-1-yl]pyrimidin-4-amine]",59
10,"COCCn1nc(-c2ccc(C#N)cc2)c(C)c1Nc1cc(-n2nc(C)cc2C)ncn1 [Example 555, 4-[5-{[6-(3,5-dimethyl-1H-pyrazol-1-yl)pyrimidin-4-yl]amino}-1-(2-methoxyethyl)-4-methyl-1H-pyrazol-3-yl]benzonitrile]",1.6
11,"CCc1c(Nc2cc(-n3nc(C)c(C)c3O)ncn2)n[nH]c1-c1ccc(F)cc1 [Example 34, 1-(6-{[4-ethyl-5-(4-fluorophenyl)-1H-pyrazol-3-yl]amino}pyrimidin-4-yl)-3,4-dimethyl-1H-pyrazol-5-ol]",1000
12,"COc1ccc(-c2nn(C)c(Nc3cc(-n4nc(C)c(Cl)c4C)ncn3)c2C)cn1 [Example 505, 6-(4-chloro-3,5-dimethyl-1H-pyrazol-1-yl)-N-[3-(6-methoxypyridin-3-yl)-1,4-dimethyl-1H-pyrazol-5-yl]pyrimidin-4-amine]",1200
13,"CCc1c(Nc2cc(-n3ncc4c3CCN(C(=O)OC(C)(C)C)C4)ncn2)n[nH]c1-c1ccc(F)cc1 [Example 33, tert-butyl 1-(6-{[4-ethyl-5-(4-fluorophenyl)-1H-pyrazol-3-yl]amino}pyrimidin-4-yl)-1,4,6,7-tetrahydro-5H-pyrazolo[4,3-c]pyridine-5-carboxylate]",1000
14,"Cc1cc(C(F)F)n(-c2cc(Nc3c(C)c(-c4ccc(OC(F)(F)F)cc4)nn3CC3CC3)ncn2)n1 [Example 309, N-{1-(cyclopropylmethyl)-4-methyl-3-[4-(trifluoromethoxy)phenyl]-1H-pyrazol-5-yl}-6-[5-(difluoromethyl)-3-methyl-1H-pyrazol-1-yl]pyrimidin-4-amine]",44
15,"CCc1c(Nc2cc(-n3nc(C)c4cnccc43)ncn2)nn(C)c1-c1ccc(F)cc1 [Example 224, N-[4-ethyl-5-(4-fluorophenyl)-1-methyl-1H-pyrazol-3-yl]-6-(3-methyl-1H-pyrazolo[4,3-c]pyridin-1-yl)pyrimidin-4-amine]",47
16,"COc1c(C)nn(-c2cc(Nc3c(C)c(-c4ccc(C(F)(F)F)nc4)nn3CC3CC3)ncn2)c1C [Example 535, N-{1-(cyclopropylmethyl)-4-methyl-3-[6-(trifluoromethyl)pyridin-3-yl]-1H-pyrazol-5-yl}-6-(4-methoxy-3,5-dimethyl-1H-pyrazol-1-yl)pyrimidin-4-amine]",26
17,"Cc1nn(-c2cc(Nc3c(Cl)c(-c4ccc(F)cc4)nn3CC3CC3)ncn2)c2cnccc12 [Example 218, N-[4-chloro-1-(cyclopropylmethyl)-3-(4-fluorophenyl)-1H-pyrazol-5-yl]-6-(3-methyl-1H-pyrazolo[3,4-c]pyridin-1-yl)pyrimidin-4-amine]",32
18,"CC(=O)c1c(Nc2cc(-n3nc(C)cc3C)ncn2)nn(C)c1-c1ccc(F)cc1 [Example 82, 1-[3-{[6-(3,5-dimethyl-1H-pyrazol-1-yl)pyrimidin-4-yl]amino}-5-(4-fluorophenyl)-1-methyl-1H-pyrazol-4-yl]ethanone]",1500
19,"Cc1nn(-c2cc(Nc3nn(C)c(-c4ccc(F)cc4)c3C)ncn2)c(C(C)(C)O)c1Cl [Example 261, 2-[4-chloro-1-(6-{[5-(4-fluorophenyl)-1,4-dimethyl-1H-pyrazol-3-yl]amino}pyrimidin-4-yl)-3-methyl-1H-pyrazol-5-yl]propan-2-ol]",20
20,"Cc1nn(-c2cc(Nc3c(C)c(-c4ccc(C#N)cc4)nn3C)ncn2)c(C)c1C(C)(C)O [Example 298, 4-[5-({6-[4-(2-hydroxypropan-2-yl)-3,5-dimethyl-1H-pyrazol-1-yl]pyrimidin-4-yl}amino)-1,4-dimethyl-1H-pyrazol-3-yl]benzonitrile]",17
21,"Cc1cc(C)n(-c2cc(Nc3c(C)c(-c4ccc(C5CN(C(=O)OC(C)(C)C)C5)cc4)nn3C)ncn2)n1 [Example 323, tert-butyl 3-[4-(5-{[6-(3,5-dimethyl-1H-pyrazol-1-yl)pyrimidin-4-yl]amino}-1,4-dimethyl-1H-pyrazol-3-yl)phenyl]azetidine-1-carboxylate]",660
22,"Cc1cc(C)n(-c2cc(Nc3c(C)c(-c4ccc(F)cc4)nn3CC(O)C3CC3)ncn2)n1 (single isomer, unassigned) [Example 370, 1-cyclopropyl-2-[5-{[6-(3,5-dimethyl-1H-pyrazol-1-yl)pyrimidin-4-yl]amino}-3-(4-fluorophenyl)-4-methyl-1H-pyrazol-1-yl]ethanol]",2400
23,"CCc1c(Nc2cc(-n3nc(C)c(Cl)c3C)ncn2)n[nH]c1-c1ccc(F)cc1 [Example 5, 6-(4-chloro-3,5-dimethyl-1H-pyrazol-1-yl)-N-[4-ethyl-5-(4-fluorophenyl)-1H-pyrazol-3-yl]pyrimidin-4-amine]",27.5
24,"CCc1c(Nc2cc(-n3nc(C)c(C(=O)N4CCCC4C)c3C)ncn2)nn(C)c1-c1ccc(F)cc1 (single isomer, unassigned) [Example 106, [1-ent-(6-{[4-ethyl-5-(4-fluorophenyl)-1-methyl-1H-pyrazol-3-yl]amino}pyrimidin-4-yl)-3,5-dimethyl-1H-pyrazol-4-yl](2-methylpyrrolidin-1-yl)methanone]",120
25,"Cc1cc(C)n(-c2cc(Nc3[nH]nc(-c4ccccc4)c3C)ncn2)n1 [Example 10, 6-(3,5-dimethyl-1H-pyrazol-1-yl)-N-(4-methyl-3-phenyl-1H-pyrazol-5-yl)pyrimidin-4-amine]",33.7
26,"Cc1nn(-c2cc(Nc3c(C)c(-c4ccc(F)cc4)nn3CC3CC3)ncn2)c(C)c1[N+](=O)[O-] [Example 466, N-[1-(cyclopropylmethyl)-3-(4-fluorophenyl)-4-methyl-1H-pyrazol-5-yl]-6-(3,5-dimethyl-4-nitro-1H-pyrazol-1-yl)pyrimidin-4-amine]",11
27,"Cc1nn(-c2cc(Nc3c(C)c(-c4ccc(C(F)F)cc4)nn3CC3CC3)ncn2)c(C)c1C(O)C1CC1 (racemic) [Example 460, (±)-cyclopropyl {1-[6-({1-(cyclopropylmethyl)-3-[4-(difluoromethyl)phenyl]-4-methyl-1H-pyrazol-5-yl}amino)pyrimidin-4-yl]-3,5-dimethyl-1H-pyrazol-4-yl}methanol]",98

# From patent US11208400B2, “Substituted 6-(1H-pyrazol-1-yl)pyrimidin-4-amine derivatives and uses thereof” (Bayer Aktiengesellschaft, priority 2016, dated 2021)
